Assay results reported in ChEMBL document CHEMBL1201862, “PubChem BioAssay data set” (2004).
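Dose response: 5 concentrations. Exposure: 48 h. Format: 96-well plates. Endpoint: linear interpolation; highest concentration if not reached. The concentration for 50% growth inhibition is given as GI50.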 Activity calls are given as the source filed them. Rule as the data show it: active = GI50 up to about 1.1 µM and inactive = higher.

Assays:
Experiment in all cases: inhibition of tumour cell growth, NCI panel, 48 h
PC-3 = system: PC-3
OVCAR-5 = system: OVCAR-5
M14 = system: M14
SF-539 = system: SF-539
KM12 = system: KM12
T47D = system: T47D
K562 = system: K562
NCI-H522 = system: NCI-H522
A549 = system: A549
OVCAR-8 = system: OVCAR-8
RXF 393 = system: RXF 393
Hs-578T = system: Hs-578T
HCT-116 = system: HCT-116
HOP-92 = system: HOP-92
LOX IMVI = system: LOX IMVI
SK-MEL-28 = system: SK-MEL-28
SR = system: SR
HT-29 = system: HT-29
UO-31 = system: UO-31
NCI-H226 = system: NCI-H226
SK-OV-3 = system: SK-OV-3
UACC-62 = system: UACC-62
HCC 2998 = system: HCC 2998
RPMI-8226 = system: RPMI-8226
OVCAR-3 = system: OVCAR-3
U-251 = system: U-251
HL-60 = system: HL-60
MDA-MB-231 = system: MDA-MB-231
SK-MEL-2 = system: SK-MEL-2
MCF7 = system: MCF7
NCI-H23 = system: NCI-H23
SNB-75 = system: SNB-75
EKVX = system: EKVX
MDA-MB-435 = system: MDA-MB-435
SK-MEL-5 = system: SK-MEL-5
IGROV-1 = system: IGROV-1
786-0 = system: 786-0
ACHN = system: ACHN
CCRF-CEM = system: CCRF-CEM
SNB-19 = system: SNB-19
SF-295 = system: SF-295
MDA-N = system: MDA-N
UACC-257 = system: UACC-257
COLO 205 = system: COLO 205
DU-145 = system: DU-145
HCT-15 = system: HCT-15
TK-10 = system: TK-10
SF-268 = system: SF-268
MOLT-4 = system: MOLT-4
CAKI-1 = system: CAKI-1
NCI-H460 = system: NCI-H460
NCI/ADR-RES = system: NCI/ADR-RES
SW-620 = system: SW-620
HOP-62 = system: HOP-62
Malme-3M = system: Malme-3M
SN12C = system: SN12C
OVCAR-4 = system: OVCAR-4
A498 = system: A498

Compound: CN(C)c1ccc(C2CC(C)(O)Oc3cc4c(cc32)OCO4)cc1 (centres undefined)
- GI50 (PC-3): 39.4 µM (inactive)
- GI50 (OVCAR-5): 75.9 µM (inactive)
- GI50 (M14): 39.1 µM (inactive)
- GI50 (SF-539): 34.1 µM (inactive)
- GI50 (KM12): 30 µM (inactive)
- GI50 (T47D): 48.6 µM (inactive)
- GI50 (K562): 48 µM (inactive)
- GI50 (NCI-H522): 19.1 µM (inactive)
- GI50 (A549): 43.7 µM (inactive)
- GI50 (OVCAR-8): 29.5 µM (inactive)
- GI50 (RXF 393): 32.7 µM (inactive)
- GI50 (Hs-578T): 61 µM (inactive)
- GI50 (HCT-116): 34.5 µM (inactive)
- GI50 (HOP-92): 25.9 µM (inactive)
- GI50 (LOX IMVI): 31.6 µM (inactive)
- GI50 (SK-MEL-28): 36.9 µM (inactive)
- GI50 (SR): 9.33 µM (inactive)
- GI50 (HT-29): 26.9 µM (inactive)
- GI50 (UO-31): 30.7 µM (inactive)
- GI50 (NCI-H226): 3.86 µM (inactive)
- GI50 (SK-OV-3): 48.8 µM (inactive)
- GI50 (UACC-62): 21.6 µM (inactive)
- GI50 (HCC 2998): 32.4 µM (inactive)
- GI50 (RPMI-8226): 19.7 µM (inactive)
- GI50 (OVCAR-3): 64.3 µM (inactive)
- GI50 (U-251): 43.8 µM (inactive)
- GI50 (HL-60): 46.3 µM (inactive)
- GI50 (MDA-MB-231): 18.2 µM (inactive)
- GI50 (SK-MEL-2): 22.2 µM (inactive)
- GI50 (MCF7): 38.4 µM (inactive)
- GI50 (NCI-H23): 71.8 µM (inactive)
- GI50 (SNB-75): 25.3 µM (inactive)
- GI50 (EKVX): 48.9 µM (inactive)
- GI50 (MDA-MB-435): 13.6 µM (inactive)
- GI50 (SK-MEL-5): 30.6 µM (inactive)
- GI50 (IGROV-1): 1.73 µM (inactive)
- GI50 (786-0): 43.7 µM (inactive)
- GI50 (ACHN): 70.6 µM (inactive)
- GI50 (CCRF-CEM): 33.6 µM (inactive)
- GI50 (SNB-19): 98.9 µM (inactive)
- GI50 (SF-295): 29.1 µM (inactive)
- GI50 (MDA-N): 18.6 µM (inactive)
- GI50 (UACC-257): 62.4 µM (inactive)
- GI50 (COLO 205): 23.4 µM (inactive)
- GI50 (DU-145): > 100 µM (inactive)
- GI50 (HCT-15): 29.9 µM
- GI50 (TK-10): 59.3 µM (inactive)
- GI50 (SF-268): 46.7 µM (inactive)
- GI50 (MOLT-4): > 100 µM (inactive)
- GI50 (CAKI-1): 66.2 µM (inactive)
- GI50 (NCI-H460): 40.9 µM (inactive)
- GI50 (NCI/ADR-RES): 35.2 µM (inactive)
- GI50 (SW-620): 35.3 µM (inactive)
- GI50 (HOP-62): 62.4 µM (inactive)
- GI50 (Malme-3M): 67 µM (inactive)
- GI50 (SN12C): 25.4 µM (inactive)

Compound: CCP(=O)(CC)C(Cl)(Cl)C(O)C(C)(C)C (centres undefined)
- GI50 (PC-3): > 100 µM (inactive)
- GI50 (OVCAR-4): > 100 µM (inactive)
- GI50 (OVCAR-5): > 100 µM (inactive)
- GI50 (M14): > 100 µM (inactive)
- GI50 (T47D): > 100 µM (inactive)
- GI50 (K562): > 100 µM (inactive)
- GI50 (NCI-H522): > 100 µM (inactive)
- GI50 (A549): > 100 µM (inactive)
- GI50 (OVCAR-8): > 100 µM (inactive)
- GI50 (Hs-578T): > 100 µM (inactive)
- GI50 (HCT-116): > 100 µM (inactive)
- GI50 (HOP-92): > 100 µM (inactive)
- GI50 (LOX IMVI): > 100 µM (inactive)
- GI50 (SK-MEL-28): > 100 µM (inactive)
- GI50 (SR): > 100 µM (inactive)
- GI50 (HT-29): > 100 µM (inactive)
- GI50 (UO-31): > 100 µM (inactive)
- GI50 (NCI-H226): > 100 µM (inactive)
- GI50 (SK-OV-3): > 100 µM (inactive)
- GI50 (HCC 2998): > 100 µM (inactive)
- GI50 (RPMI-8226): > 100 µM (inactive)
- GI50 (OVCAR-3): > 100 µM (inactive)
- GI50 (U-251): > 100 µM (inactive)
- GI50 (HL-60): > 10 µM (inactive)
- GI50 (MDA-MB-231): > 100 µM (inactive)
- GI50 (SK-MEL-2): > 100 µM (inactive)
- GI50 (MCF7): > 100 µM (inactive)
- GI50 (NCI-H23): > 100 µM (inactive)
- GI50 (SNB-75): > 100 µM (inactive)
- GI50 (A498): > 100 µM (inactive)
- GI50 (MDA-MB-435): > 100 µM (inactive)
- GI50 (SK-MEL-5): > 100 µM (inactive)
- GI50 (IGROV-1): > 100 µM (inactive)
- GI50 (ACHN): > 100 µM (inactive)
- GI50 (CCRF-CEM): > 100 µM (inactive)
- GI50 (SNB-19): > 100 µM (inactive)
- GI50 (SF-295): > 100 µM (inactive)
- GI50 (MDA-N): > 100 µM (inactive)
- GI50 (UACC-257): > 100 µM (inactive)
- GI50 (COLO 205): > 100 µM (inactive)
- GI50 (DU-145): > 100 µM (inactive)
- GI50 (HCT-15): > 100 µM
- GI50 (TK-10): > 100 µM (inactive)
- GI50 (MOLT-4): > 100 µM (inactive)
- GI50 (CAKI-1): > 100 µM (inactive)
- GI50 (NCI-H460): > 100 µM (inactive)
- GI50 (NCI/ADR-RES): > 100 µM (inactive)
- GI50 (SW-620): > 100 µM (inactive)
- GI50 (HOP-62): > 100 µM (inactive)
- GI50 (SN12C): > 100 µM (inactive)

Compound: OCc1cn(C(c2ccccc2)(c2ccccc2)c2ccccc2)cn1
- GI50 (PC-3): 27.5 µM (inactive)
- GI50 (OVCAR-4): > 100 µM (inactive)
- GI50 (OVCAR-5): > 100 µM (inactive)
- GI50 (M14): > 100 µM (inactive)
- GI50 (T47D): > 100 µM (inactive)
- GI50 (K562): > 100 µM (inactive)
- GI50 (NCI-H522): > 100 µM (inactive)
- GI50 (A549): > 100 µM (inactive)
- GI50 (OVCAR-8): > 100 µM (inactive)
- GI50 (Hs-578T): 33.7 µM (inactive)
- GI50 (HCT-116): > 100 µM (inactive)
- GI50 (HOP-92): 29.7 µM (inactive)
- GI50 (LOX IMVI): 66.7 µM (inactive)
- GI50 (SK-MEL-28): > 100 µM (inactive)
- GI50 (SR): > 100 µM (inactive)
- GI50 (HT-29): > 100 µM (inactive)
- GI50 (UO-31): > 100 µM (inactive)
- GI50 (NCI-H226): > 100 µM (inactive)
- GI50 (SK-OV-3): 66.4 µM (inactive)
- GI50 (HCC 2998): > 100 µM (inactive)
- GI50 (RPMI-8226): > 100 µM (inactive)
- GI50 (OVCAR-3): > 100 µM (inactive)
- GI50 (U-251): 50.9 µM (inactive)
- GI50 (HL-60): > 100 µM (inactive)
- GI50 (MDA-MB-231): > 100 µM (inactive)
- GI50 (SK-MEL-2): > 100 µM (inactive)
- GI50 (NCI-H23): > 100 µM (inactive)
- GI50 (SNB-75): 22.2 µM (inactive)
- GI50 (MDA-MB-435): > 100 µM (inactive)
- GI50 (SK-MEL-5): > 100 µM (inactive)
- GI50 (IGROV-1): > 100 µM (inactive)
- GI50 (ACHN): 72.4 µM (inactive)
- GI50 (CCRF-CEM): > 100 µM (inactive)
- GI50 (SNB-19): > 100 µM (inactive)
- GI50 (SF-295): 32.3 µM (inactive)
- GI50 (MDA-N): > 100 µM (inactive)
- GI50 (UACC-257): > 100 µM (inactive)
- GI50 (COLO 205): > 100 µM (inactive)
- GI50 (DU-145): > 100 µM (inactive)
- GI50 (HCT-15): > 100 µM
- GI50 (TK-10): > 100 µM (inactive)
- GI50 (MOLT-4): > 100 µM (inactive)
- GI50 (CAKI-1): 91.6 µM (inactive)
- GI50 (NCI-H460): > 100 µM (inactive)
- GI50 (NCI/ADR-RES): > 100 µM (inactive)
- GI50 (SW-620): > 100 µM (inactive)
- GI50 (HOP-62): 44.5 µM (inactive)
- GI50 (SN12C): > 100 µM (inactive)
